Results on 5 compounds are retold here after patent publication US20160052936A1, “SPIROINDOLINE DERIVATIVES FOR USE AS GONADOTROPIN-RELEASING HORMONE RECEPTOR ANTAGONISTS” (BAYER PHARMA AKTIENGESELLSCHAFT, priority 2013, published 2016).

One data set has as its target T1, human GnRH receptor (Homo sapiens, UniProt P30968).
T1 construct: host or cells: CHO cells stably expressing human GnRH receptor (line established by Prof. Thomas Gudermann)
T1 sequence (P30968 1-328): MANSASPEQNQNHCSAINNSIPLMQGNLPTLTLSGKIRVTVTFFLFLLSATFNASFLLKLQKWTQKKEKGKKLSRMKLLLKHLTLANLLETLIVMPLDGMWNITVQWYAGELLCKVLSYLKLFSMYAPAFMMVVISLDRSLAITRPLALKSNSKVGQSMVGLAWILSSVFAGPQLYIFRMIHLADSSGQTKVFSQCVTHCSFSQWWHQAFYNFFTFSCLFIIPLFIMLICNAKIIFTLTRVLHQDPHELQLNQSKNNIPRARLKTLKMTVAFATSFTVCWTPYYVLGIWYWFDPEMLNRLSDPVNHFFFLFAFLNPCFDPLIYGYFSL
Nature of the data set: IP-One HTRF assay with buserelin stimulation. It counts as cell-based. Conditions: CHO cells stably expressing human GnRH receptor; buserelin at EC80; read-out: Potency in IP-One HTRF assay with buserelin (at EC80) stimulation, given as IC50. The source says:
By using homogenous time-resolved fluorescence resonance energy transfer (HTRF), the generation of one component of the GnRH-R signalling cascade can be measured. After stimulation of CHO cells stably expressing human GnRH receptor (established by Prof. Thomas Gudermann, currently University of Marburg, Germany; supplied as frozen cell aliquots by Cell Culture Services, Hamburg, Germany) with the EC80 of the GnRH agonist buserelin, Gq protein-coupled receptor signalling cascade is activated resulting in PLC-dependent cleavage of PIP2 to Inositol-1,4,5-triphosphate (IP3) and Diacylglycerol. The second messenger IP3 is degraded intracellularly to myo-inositol. Inhibition of the final degradation step from Inositol-1-phosphate (IP1) to myo-inositol by addition of lithium chloride leads to accumulation of IP1 in the cells. In cell lysates, IP1 can be detected via an antibody-based HTRF detection technology, where IP1 can displace the FRET acceptor IP1-d2 from binding by Terbium-labelled anti-IP1 antibody as donor resulting in a signal decrease. Compounds were tested for their capability of inhibiting GnRH-R activation by buserelin. For all IP-One HTRF® assays reagents of Cisbio Bioassays (IP-One Tb Jumbo kit, #62IPAPEJ; Cisbio Bioassays, Bagnols sur Cèze Cedex, France) were used.
For the assay, frozen cell aliquots were thawed and a cell suspension (3.33×10^6 cells/mL) containing IP1-d2 (dilution 1:40) was prepared and incubated at 37° C. After 1 h 3 μl of the cell suspension were added to 50 nl of a 100-fold concentrated solution of the test compound in DMSO pre-dispensed in a well of a white low-volume 384-well microtiter plate (Greiner Bio-One, Frickenhausen, Germany). […] Plates were incubated for 1 h at 37° C. and 5% carbon dioxide before the cells were lysed by adding 3 μl Terbium-labelled anti-IP1 antibody (1:40) diluted in Conjugate & Lysis buffer as supplied with the kit. After an incubation for 1 h at 22° C. to enable complete cell lysis and antibody binding to free IP1 or IP1-d2, plates were measured in an HTRF reader, e.g. a RUBYstar, PHERAstar (both BMG Labtechnologies, Offenburg, Germany) or a Viewlux (PerkinElmer LAS, Rodgau-Jügesheim, Germany).
From the fluorescence emissions at 665 nm (FRET) and at 620 nm (background signal of Terbium-antibody), the ratio (emission at 665 nm divided by emission at 620 nm) was calculated and the data were normalized (reaction without test compound=0% inhibition; all other assay components except agonist=100% inhibition). On the same microtiter plate, compounds were tested at 10 different concentrations in the range of 20 μM to 1 nM (20 μM, 6.7 μM, 2.2 μM, 0.74 μM, 0.25 μM, 82 nM, 27 nM, 9.2 nM, 3.1 nM and 1 nM; dilution series prepared before the assay at the level of the 100-fold conc. stock solutions by serial 1:3 dilutions in 100% DMSO) in duplicate values for each concentration. By using an in-house software, the IC50 values were calculated by a 4 parameter fit.
Within the meaning of the present invention the antagonist activity is reflected by the ability of a compound of the invention to antagonize human GnRH receptor stimulation in IP-One HTRF® assay at least three times the standard deviation over the background level.
On the technique in general: TR-FRET usually uses a lanthanide donor and a delayed reading to cut background.

The target in the next data set is T2, human GnRHR (Homo sapiens, UniProt P30968).
T2 construct: own knowledge: Tag-lite cells usually carry an N-terminal SNAP-tag fusion; host or cells: Hek293 cells, transiently transfected, supplied frozen
T2 sequence (P30968 1-328): T1 sequence (P30968 1-328)
Nature of the data set: Tag-Lite receptor binding assay. Conditions: Hek293 cells transiently transfected with human GnRHR; displacement of green-labelled GnRHR binding peptide; read-out: Potency in receptor binding assay using TAG-LITE technology, given as IC50. The source says:
2.2. Tag-Lite® Receptor Binding Assay
This binding assay is based on the fluorescence resonance energy transfer between fluorescence donor labelled human GnRHR and a green-labelled GnRHR binding peptide. Compounds interfering with the ligand binding side of the human GnRHR will replace the labelled peptide resulting in a signal decrease. The assay principle was established by Cisbio Bioassays (Bagnols-sur-Cèze Cedex, France) and further details are available on their homepage.
The assay procedure was further optimized for use in-house with reduced assay volumes. Frozen Hek293 cells, transiently transfected with human GnRHR and Terbium-labelling of the receptor, were supplied by Cisbio Bioassays as well as Tag-Lite buffer and green-labelled GnRHR binding peptide. Cells were thawed and transferred to cold Tag-Lite buffer. A volume of 8 μl of this cell suspension were added to 100 nl of a 160-fold concentrated solution of the test compound in DMSO pre-dispensed in a well of a white low-volume 384-well microtiter plate (Greiner Bio-One, Frickenhausen, Germany). The mixture was incubated for 5 min at room temperature. In the next step either 4 μl Tag-Lite buffer or as control 4 μl of an exceeding amount unlabelled binding peptide in Tag-Lite buffer were transferred to the mixture. The green-labelled GnRHR binding peptide was added in a final step at EC50 in a volume of 4 μl Tag-Lite buffer. After an incubation of 1 h at room temperature plates were measured in a microplate reader, e.g. a PHERAstar (BMG Labtechnologies, Offenburg, Germany) by using a specific optic module.
A ratio from the fluorescence emissions at 520 nm (green fluorescence) and at 490 nm (background signal of Terbium-labelled GnRHR) was calculated and the data were normalized (reaction without test compound=0% inhibition of binding of green-labelled peptide; reaction without test compound with exceeding amount unlabelled binding peptide=100% inhibition of binding of green-labelled peptide). On the same microtiter plate, compounds were tested at 10 different concentrations in the range of 12.5 μM to 0.64 nM (12.5 μM, 4.2 μM, 1.4 μM, 0.46 μM, 0.15 μM, 51 nM, 17 nM, 5.7 nM, 1.9 nM and 0.64 nM; dilution series prepared before the assay at the level of the 160-fold conc. stock solutions by serial 1:3 dilutions in 100% DMSO) in duplicate values for each concentration. By using an in-house software, the IC50 values were calculated by a 4 parameter fit.

In data set [1] the test system is LH level in ovariectomized rats. Nature of the data set: LH suppression in the ovariectomized rat. It counts as in vivo. Particulars: 0.1 mg/kg i.p., 8 hours. The text has this:
2.5. LH Suppression in the Ovariectomized Rat
The in vivo potency of GnRH antagonists can be quantified by a LH suppression test in ovariectomized rats. GnRH triggers the LH release from the pituitary mediated by GnRH receptors. Ovarectomy of adult female rats results in elevated levels of circulating LH due to a lack of negative feedback by gonadal steroids. GnRH antagonists suppress the release of LH and accordingly suppression of LH levels can be used to quantify the in vivo potency of GnRH antagonists.
Female adult rats were ovariectomized surgically and they were allowed to recover for at least one week. The animals received 0.5 mg/kg, 3 mg/kg or 10 mg/kg of Example 3.1 by single per oral administration. For comparison reasons a vehicle control and a positive control, 0.1 mg/kg cetrorelix (i.p.), were given once. At 0 min, 15 min, 30 min, 1 hour, 2 hours, 4 hours, 8 hours and 24 hours after compound administration blood was taken from the retro orbital plexus (n=6 per blood withdrawal) for the measurement of serum LH and serum compound levels.
As nonbinding explanatory example of compounds according to the invention FIG. 1 represents the LH level following administration of the compound according to Example 3.1, to ovariectomized adult rats. [Filled circle: Vehicle; Circle, dotted black line: Cetrorelix (0.1 mg/kg); Triangle: Example 3.1 (0.5 mg/kg); Reverse triangle: Example 3.1 (3 mg/kg); Diamond: Example 3.1 (10 mg/kg)]. Values are given as mean+standard deviation (n=6).

A short description of data set [2]: In vivo pharmacokinetics in rats. Conditions: Wistar, rat, plasma, po, male rats, 2 mg/kg p.o. The procedure:
2.4 In Vivo Pharmacokinetics in Rats
For in vivo pharmacokinetic experiments test compounds were administered to male Wistar rats intravenously at a dose of 0.5 mg/kg and intragastral at a dose of 2 mg/kg formulated as solutions using solubilizers such as PEG400 or Solutol in well-tolerated amounts.
For pharmacokinetics after intravenous administration test compounds were given as i.v. bolus and blood samples were taken at 2 min, 8 min, 15 min, 30 min, 45 min, 1 h, 2 h, 4 h, 7 h and 24 h after dosing. […] For pharmacokinetics after intragastral administration test compounds were given intragastral to fasted rats and blood samples were taken at 8 min, 15 min, 30 min, 45 min, 1 h, 2 h, 4 h, 7 h and 24 h after dosing. […] Blood was collected into Lithium-Heparintubes (Monovetten®, Sarstedt) and centrifuged for 15 min at 3000 rpm. An aliquot of 100 μL from the supernatant (plasma) was taken and precipitated by addition of 400 μL cold acetonitril and frozen at −20° C. over night. Samples were subsequently thawed and centrifuged at 3000 rpm, 4° C. for 20 minutes. Aliquots of the supernatants were taken for analytical testing using an Agilent 1200 HPLC-system with LCMS/MS detection. PK parameters were calculated by non-compartmental analysis using a PK calculation software.
PK parameters derived from concentration-time profiles after i.v.: CLplasma: Total plasma clearance of test compound (in L/kg/h); CLblood: Total blood clearance of test compound: CLplasma*Cp/Cb (in L/kg/h) with Cp/Cb being the ratio of concentrations in plasma and blood. PK parameters calculated from concentration time profiles after i.g.: Cmax: Maximal plasma concentration (in mg/L); Cmaxnorm: Cmax divided by the administered dose (in kg/L); Tmax: Time point at which Cmax was observed (in h). Parameters calculated from both, i.v. and i.g. concentration-time profiles: AUCnorm: Area under the concentration-time curve from t=0 h to infinity (extrapolated) divided by the administered dose (in kg*h/L); AUC(0−tlast)norm: Area under the concentration-time curve from t=0 h to the last time point for which plasma concentrations could be measured divided by the administered dose (in kg*h/L); t½: terminal half-life (in h); F: oral bioavailability: AUCnorm after intragastral administration divided by AUCnorm after intravenous administration (in %).

Non-standard residues stand in square brackets, D forms with d. Residues, ends and D or L forms follow the SMILES beside them. dPhe(4-Cl) = N[C@H](Cc1ccc(Cl)cc1)C(=O)O; d2Nal = N[C@H](Cc1ccc2ccccc2c1)C(=O)O; dCit = NC(=O)NCCC[C@@H](N)C(=O)O; d3Pal = N[C@H](Cc1cccnc1)C(=O)O

The IC50 is the point on the concentration scale where inhibition reaches its midpoint. As to `O=C(NCc1ncc(C(F)(F)F)cc1Cl)c1ccc2c(c1)C1(CCS(=O)(=O)CC1)C(C1CC1)N2S(=O)(=O)c1cccc(OC(F)F)c1` (racemic) [Example 14, N-{[3-chloro-5-(trifluoromethyl)pyridin-2-yl]methyl}-2-cyclopropyl-1-{[3-(difluoromethoxy)phenyl]sulfonyl}-1,2,2′,3′,5′,6′-hexahydrospiro[indole-3,4′-thiopyran]-5-carboxamide 1′,1′-dioxide], the 50% inhibitory concentration (IC50) at human GnRH receptor is 82 nM; on human GnRHR, 78.7 nM.
For the compound `CC(=O)N[C@H](Cc1ccc2ccccc2c1)C(=O)N[C@H](Cc1ccc(Cl)cc1)C(=O)N[C@H](Cc1cccnc1)C(=O)N[C@@H](CO)C(=O)N[C@@H](Cc1ccc(O)cc1)C(=O)N[C@H](CCCNC(N)=O)C(=O)N[C@@H](CC(C)C)C(=O)N[C@@H](CCCNC(=N)N)C(=O)N1CCC[C@H]1C(=O)N[C@H](C)C(N)=O` [cetrorelix, reference compound] (Ac-[d2Nal][dPhe(4-Cl)][d3Pal]SY[dCit]LRP[dA]-NH2), the LH suppression result in data set [1] was “ca. 90%”.
For the compound `O=C(NCc1ncc(C(F)(F)F)cc1Cl)c1ccc2c(c1)C1(CCS(=O)(=O)CC1)[C@@H](C1CC1)N2S(=O)(=O)c1ccc(F)cc1` [Example 3.2, (2R)—N-{[3-chloro-5-(trifluoromethyl)pyridin-2-yl]methyl}-2-cyclopropyl-1-[(4-fluorophenyl)sulfonyl]-1,2,2′,3′,5′,6′-hexahydrospiro[indole-3,4′-thiopyran]-5-carboxamide 1′,1′-dioxide], the half-inhibitory concentration (IC50) at human GnRH receptor worked out at 2430 nM; on human GnRHR it was 748 nM.
What is called half-life is how long it takes for the measured level to halve. What is called bioavailability is dose-corrected exposure relative to a reference, in per cent. Turning to `N#Cc1ccc(S(=O)(=O)N2c3ccc(C(=O)NCc4ncc(C(F)(F)F)cc4Cl)cc3C3(CCS(=O)(=O)CC3)[C@@H]2C2CC2)cc1` (single isomer, unassigned) [Example 8.1], the half-life in data set [2] is 5 h. The bioavailability in data set [2] (AUCnorm intragastral / AUCnorm i.v. (0.5 mg/kg), read-out: F (oral bioavailability)) turned out to be 17%. Also, at human GnRH receptor, the IC50 is 10 nM.
As for `N#Cc1ccc(S(=O)(=O)N2c3ccc(C(=O)NCc4ncc(C(F)(F)F)cc4Cl)cc3C3(CCS(=O)(=O)CC3)C2C2CC2)cc1` (racemic) [Example 8, N-{[3-chloro-5-(trifluoromethyl)pyridin-2-yl]methyl}-1-[(4-cyanophenyl)sulfonyl]-2-cyclopropyl-1,2,2′,3′,5′,6′-hexahydrospiro[indole-3,4′-thiopyran]-5-carboxamide 1′,1′-dioxide], the half-inhibitory concentration (IC50) came to 22 nM at human GnRH receptor and 21.7 nM at human GnRHR.
